Test results: US7339042B2, “Gene delivery to tumors” (University of Florida Research Foundation, Inc., priority 2003, dated 2008)

Experiments:
T98G cells = assay: Fusion peptide cell killing, propidium iodide/FACS viability, T98G cells; format: cell-based, human
Method: (§1) Other experiments were performed using two glioma cell lines, i.e., T98G and RG2. 1×10^6 cells per well were incubated in 6-well plates with peptides in complete media for 1 hr. Cells were removed from the plate using a cell stripper and the percentage of viable cells was determined by staining with propidium iodide and analyzing by fluorescence activated cell sorting (FACS).
(§2) Cell viability studies were performed by plating the cells under the same conditions as the uptake studies. Cells were incubated with fluorescent peptides for 1 hr at 37° C. The cells were removed from the plate using cell striper. They were labeled with propidium iodide and fluorescein-AM. Percent PI positive cells were determined by FACS.

[1] = as above; format: cell-based, human; settings: peptides in complete media for 1 hr, Table 2, read-out: % Viable Cells
Method: as §1, §2

[2] = Fusion peptide cell killing, propidium iodide/FACS viability, RG2 cells; format: cell-based, rat; settings: peptides in complete media for 1 hr, Table 2
Method: as §1
(§3) There are 4 conserved amino acid differences between the rat and human CDKI sequence. Both sequences were attached to Tat and tested for cell killing activity in the rat glioma RG2 cells. Also the effect of orientation of the Tat and CDKI domains were tested. RG2 cells were plated on 6 well plates at approximately 70% confluency. Each of the peptides was added to the wells with increasing concentration. After 1 hr, cells were removed from the plates, washed 2× with PBS, stained with propidium iodide and analyzed by FACS for viable cells.
as §2
(§4) The cytotoxicity of the chimeric peptides was characterized using a cell viability assay. Peptides were added to cells at a fixed concentration. After a 30-minute incubation, cells were removed from the plate, stained with propidium iodide and the % positive cells were determined by FACS (fluorescent activated cell scanning). The test conditions were Tat, ANT, Tat-P14ARF, ANT-P14ARF and P14ARF. T98G cells were tested along with RG2 cells and A172 cells.

RG2 cells = assay: as above; format: cell-based, rat; settings: peptides in complete media for 1 hr, Table 2
Method: as §1, §3, §2, §4

A172 cells = assay: Fluorescein peptide uptake by A172 cells, fluorescence microscopy; format: cell-based, human; settings: 30 uM peptide, 1 hr, 37° C., serum containing media
Method: For fluorescent microscopy studies cells were plated on 2 chamber cover slips at a density of 1×10^4 cells/chamber. Cells were incubated with […] peptide for 30 minutes in completed media, washed with PBS 3× and imaged using a Nikon Axiophot inverted fluorescent microscope. Images were taken using a Spot CCD camera.
Synthetic peptides derived from HIV Tat (Tat) and the Drosophila antennaepedia homeodomain (ANT) were tested for cell uptake by A172 cells (human glioblastomas). The peptides were labeled at the N-terminus with fluorescein. Cells were incubated with 30 uM peptide at 37° C. in serum containing media. Fluorescent micrographs were taken after 1 hr incubation at 37° C. […] The size of the peptide was increased by added an Mdm-2 binding domain derived from P14ARF. This domain was added to the C-terminus of the Tat and ANT peptides. The P14ARF domain was also placed at the N-terminus followed by the Tat peptide. All the peptides were labeled at the N-terminus with fluorescein and cell incubations similar to the Tat and ANT peptides were tested for cellular uptake. […] Both the bright field and fluorescent micrographs show altered cell morphology.

[3] = system: endothelial cells and smooth muscle cells of rat cerebral arteries; assay: Uptake of fluorescent peptides by pressure-mounted rat cerebral arteries; format: cell-based; settings: intraluminal perfusion of fluorescent peptide
Method: Tat-P16 peptides were prepared and labeled with fluorescein for use in uptake studies using intact blood vessels isolated from rat brain. Blood vessels were dissected from rat brain and stabilized in an isolated perfusion system in which vessels were attached on either end to catheters and placed under physiological pressure. Following a 10 minute perfusion of the isolated vessels with flurorescent Tat-P16 peptide (1 μM), vessels were examined for uptake of the peptides. […] Within the endothelial cells, the labeled peptides were seen to be localized to the cell nuclei, further confirming uptake of the peptides by the cells.
The peptides are fairly labile in the media and approximately 50% are degraded upon incubation at 37° C. in complete media (qualitative analysis by PAGE) after 1 hour. […] Uptake of these peptides and cell killing activity was tested in a 3 dimensional organ culture using rat cerebral arteries cultured under physiological pressure and flow. A segment of the rat cerebral artery is surgically removed and placed in ringer's solution. Using a surgical stereoscope, the blood vessel is tied at either end to two cannulas on a teflon stage. Ringer's solution is perfused through the lumen of the vessel at a constant rate that maintains physiologic hydrostatic pressure. The fluorescent peptide was introduced intraluminally by perfusing a 1 μM solution of peptide through the lumen over a 10 minute period.
Rats were anesthetized by intraperitoneal injection of pentobarbital sodium (160 mg/kg) and killed by decapitation. The brain was removed and placed in an ice-cold oxygenated physiological cerebrospinal fluid (PCSF, see below for composition). Cerebellar arteries were isolated and mounted in an arteriograph as described previously (Knot and Nelson 1998). The arteriograph was placed on an inverted microscope and the artery was visualized with a monochrome CCD camera coupled to a calibrated video caliper system to measure arterial diameter. The arteries were slowly pressurized to 70 mmHg under no flow conditions using a pressure servo-null system (Living Systems Inc., Burlington Vt.), and warmed to 37° C. while being continuously superfused (5 ml/min) with PCSF bubbled with 21% O2, 5% CO2, 74% N2 (pH 7.35-7.40 in the bath). […] Myogenic tone is calculated by the following equation: Myogenic tone=(Dp−Da)/Dp×100
In some experiments, the arterial segments were denuded of endothelium by passing an air bubble through the lumen, thus exposing the smooth muscle cells to luminally administered peptides. Constriction to pressure and 60 mM KCl and dilation of arteries with myogenic tone to 16 mM KCl were used as benchmarks of functional arteries. Peptide containing PCSF was perfused intraluminally at an inlet pressure of 70 mmHg with the outlet open, for 20 min and then perfused with normal PCSF. This procedure ensures a 20 min of exposure of the arteries to the peptide.

C[C@H](N)C(=O)NCC(=O)NCC(=O)NCC(=O)N[C@@H](Cc1ccc(O)cc1)C(=O)NCC(=O)N[C@@H](CCCNC(=N)N)C(=O)N[C@@H](CCCCN)C(=O)N[C@@H](CCCCN)C(=O)N[C@@H](CCCNC(=N)N)C(=O)N[C@@H](CCCNC(=N)N)C(=O)N[C@@H](CCC(N)=O)C(=O)N[C@@H](CCCNC(=N)N)C(=O)N[C@@H](CCCNC(=N)N)C(=O)N[C@@H](CCCNC(=N)N)C(=O)O [Tat]
% killing (toxicity) (T98G cells; 10 μM peptide, 1 hr): no toxicity
% Viable Cells (T98G cells; peptides in complete media for 1 hr, Table 2): ineffective
viability [1]: 94.9%
viability [2]: 94%
% Viable (RG2 cells): ineffective
staining pattern (cell uptake) (A172 cells): intracellular punctate
labeling/uptake by endothelial cells [3]: selectively labeling the endothelial nuclei
labeling/uptake by smooth muscle cells [3]: did not label the smooth muscle cells
